Entries after “also recorded” stand apart in the source; their conditions may differ.
Tests used:
[1] = Sponge cleavage condition optimization (visual monitoring of sponge incubated with reductant); details: 37° C.; for Remarks: sponge cleavage: 1 mM reductant in William's E medium
Procedure: For easy visualization during cleavage, HPCSS Gal sponges were pre-soaked in 0.25 mg/mL propidium iodide overnight (Molecular Probes, USA). The stained sponges were incubated with 3 mL each of TCEP and DTT (as known strong reductant) per sponge at various concentrations (25, 10, 5, 3 and 1 mM) in 37° C., 5% CO2 and 95% incubator. The morphological changes of the sponge were monitored visually every 15 minutes.

[2] = reduction of disulfide bonds; cited from earlier work
[3] = test system: primary rat hepatocyte; assay: TCEP toxicity study in primary rat hepatocyte (MTT); format: cell-based; details: for primary rat hepatocyte viability: MTT, ratio to untreated
Procedure: Primary rat hepatocyte was seeded on collagen coated well in 24-well plate format (0.3×10^6 cell per well). The culture was maintained for 3 days and the medium was replenished every day. On the 3rd day, the cells were incubated with TCEP solution in Williams' E medium at pre-determined concentrations and time; 5 mM for 1.5 hour, 10 and 25 mM for 30 minutes each. The duration of the incubation was chosen based on the ability of the associated TCEP concentrations to completely cleave HPCSS Gal sponge. Upon incubation, the morphology of the cells was monitored and followed with further incubation of 1 mg/mL (3-(4,5-dimethylthiazol-2-yl)-2,5-diphenyltetrazolium bromide (MTT) solution for 3 hours. The formed formazan product in each well was dissolved with 300 μL of 0.04 M HCl in isopropanol and its optical density was measured by TECAM Infinite M1000 microplate reader at 570 nm. Cell viability was determined by calculating the ratio of treated sample absorbance against untreated sample absorbance.

[4] = Dynamic of sponge cleavage with time lapse imaging; details: 10 mM TCEP, 37° C., confocal time lapse
Procedure: The propidium iodide-prestained HPCSS Gal sponges were incubated with 10 mM TCEP and its macroporosity changes were monitored by Olympus fluoview FV1000 equipped with 37° C. heated chamber with a 60× water lens for 30 minutes with 2 minutes time interval. Images were analysed using IMARIS and images assembled using Adobe illustrator CS3.

[5] = test system: CYP1A2, CYP2B2 and CYP3A2; assay: RT-PCR gene expression of cytochrome P450 genes in hepatocyte spheroids; format: cell-based; details: 10 mM TCEP, 30 minutes, rat hepatocyte spheroids
Procedure: Rat hepatocyte, E1 and mESCs spheroids were retrieved from the sponge by incubating cell seeded-cleavable sponge with 3 mL of 10 mM TCEP in respective cell culture mediums in each well of 12-well plate for 30 minutes at 37° C. (incubator set up 5% CO2 and 95% humidity). The cleaved sponge solution from each well was mixed thoroughly by 3 mL plastic dropper and then transferred into 15 mL falcon tube. This solution was further diluted with 3 mL pre-warmed DPBS and centrifuged at 100×g for 10 minutes. This washing step was repeated three times to remove TCEP solution completely. Eventually, the retrieved hepatocyte spheroids were resuspended in fresh mediums and replated on collagen coated dish or poly-L-lysine coated dish for further assays or spheroids manipulation.
RNA was extracted from hepatocytes cultured as 3D spheroids in HPCSS Gal sponges by RLT lysis buffer (Qiagen, Singapore). Total RNA concentration was quantified by a Nanodrop (Thermoscientific) and 1 μg of RNA was converted to cDNA by High Capacity RNA-to-cDNA (Applied Biosystems). Primers were designed using Primer 3 and real-time PCR was performed by using SYBR green fast master mix on a ABI 7500 Fast Real-Time PCR system (Applied Biosystems). Gene expression was calculated using the ΔΔCT method normalized to GAPDH. The primers used in experiment are shown below.

[6] = test system: F-actin, E-cadherin and MRP2; assay: Immunofluorescence staining of polarity markers and cell-cell junction of retrieved hepatocyte spheroids; format: cell-based, rat; details: 10 mM TCEP to cleave the sponge
Procedure: To stain F-actin, E-cadherin and MRP2, hepatocytes spheroids cultured for 72 hours post-seeding in the sponges and retrieved from HPCSS Gal sponges were fixed in 3.7% paraformaldehyde for 10 minutes. For staining F-actin, the cells were permeabilized for 5 minutes in 0.1% Triton X-100 and incubated with 1 μg/mL TRITC-phalloidin (Molecular Probes, USA) for 20 minutes. For E-cadherin and MRP2 staining, following washing and blocking with 2% BSA/0.2% Triton-X 100 the spheroids were incubated overnight at 4° C. with primary antibodies: anti-rat E-cadherin (BD, USA) and rabbit anti-rat MRP2 (Sigma Aldrich, Singapore), respectively. Secondary antibodies used were goat anti-mouse and goat anti-rabbit 488 and 555 (Molecular Probes, USA), respectively. Nuclei stain was captured using DAPI stain (Vecta Shield, UK). Images were captured using Olympus fluoview FV1000 with a 60× water lens. Images were analysed using IMARIS and assembled using Adobe illustrator CS3.

[7] = test system: cells; details: 10 mg/mL, 24 hours of exposure; cited from earlier work
[8] = 3 mM reductant in William's E medium
[9] = 5 mM reductant in William's E medium
[10] = 25 mM reductant in William's E medium

Row | SMILES | Remarks: sponge cleavage [1] | Remarks: time within which sponge cleaved [1, 8] | Remarks: time within which sponge cleaved [1, 9] | Remarks: time within which sponge cleaved ([1]; 10 mM reductant in William's E medium) | Remarks: time within which sponge cleaved [1, 10] | pH range at which the reductant is effective [2] | primary rat hepatocyte viability ([3]; 5 mM, 1.5 hour) | primary rat hepatocyte viability ([3]; 10 mM, 30 minutes) | primary rat hepatocyte viability ([3]; 25 mM, 30 minutes) | cell damage in phase contrast images ([3]; hepatocytes with and without TCEP incubation) | maintenance of cell viability (FIG. 10 legend) ([3]; rat hepatocyte, all TCEP configurations tested) | time at which sponge macroporous networks had shrunken significantly [4] | effect of TCEP incubation on CYP genes [5] | effect of TCEP incubation on polarity markers and cell-cell junction [6] | remaining viable cells [7]
1 | O[C@H](CS)[C@H](O)CS (racemic) [DTT, dithiothreitol] | Sponge not | within 2 hours | within 1.5 hour | within 30 minutes | within 30 minutes | 7-8.1 | – | – | – | – | – | – | – | – | –
2 | O=C(O)CCP(CCC(=O)O)CCC(=O)O [TCEP, tris(2-carboxyethyl)phosphine] | Sponge not | within 2 hours | within 1.5 hour | – | within 30 minutes | 1.5-8.5 | 79.75±10.71% | 87.42±8.03% | 93.06±6.96% | No significant cell damage | > 80% | 6 min | did not show any significant detrimental effect; also recorded: no significant effect | does not show harmful effect | 60%
